From patent publication US9359341B2, “Aldehyde derivative of substitute oxazolidinones” (WANBURY LTD., priority 2012, dated 2016)

Assays:
[1] = Stability in simulating gastric fluid (SGF); type: physicochemical
Protocol: On completion of incubation period, the solution is centrifuged and supernatant is taken. To the supernatant, ice cold acetonitrile containing IS is added, vortexed and injected into LCMS/MS.
API 4000, ESI Agilent 1100 column: Gemini Nx 100 mm×4.6 mm 5.μ; column temperature: 30° C.; eluent A: 0.1% formic acid in water, eluent B: acetonitrile; gradient: 0-2.5 min 95% A, 5% B; 2.5-2.6 min 5% A, 95% B; 2.6-4.2 min 95% A, 5% B; flow rate: 0.8 ml/min; ESI. Q1:464.098, Q3:144.255
Prepared 0.1 mol of citric acid and 0.2 mol of di sodium hydrogen phosphate in water. Buffer pH 2.2, 4 and 7.8 are prepared using citric acid and disodium hydrogen phosphate by adjusting the pH with 0.1N HCl or 1N NaOHpH 7.4: 8.89 g disodium hydrogen phosphate (Solution A) add to 1 liter of water, 1.5601 g sodium di-hydrogen phosphate (solution B) are made up to 1 liter with water; Solution A (19 ml) and Solution B (81 ml) are mixed. SIF/SGF: 2.38 g of SIF original powder (biorelavant media) is dissolved in 1 L of milliQ water. The pH of the solution is adjusted for SIF (7.4) and SGF (2.2) with 0.1N HCl. The ratios of the peak areas (F) at the respective time points in relation to the peak areas at the starting time are calculated
The peak area (F) is directly correlated to the amount of test compound which is quantified by the LC MS method.
In simulating intestinal and gastric fluid, the area of the formula B compared with zero minute area to 120 min.

CYP2C19 = CYP2C19 (Homo sapiens (Human), UniProt P33261); test: CYP inhibition assay; type: in vitro ADME; conditions: pooled human liver microsomes; extrapolated IC50 derived from 3 μM; read-out: IC50 (μM) of CYP isoforms, 2C19
Protocol: (§1) The ability of substances to inhibit CYP1A2, CYP2C9, CYP2D6, CYP2C19, CYP2J2 and CYP3A4 in humans was investigated with pooled human liver microsomes as enzyme source in the presence of standard substrates (see below) which form CYP-isoform-specific metabolites.
(§2) Standard incubation mixtures comprise NADPH and substrates in 100 mM phosphate buffer (pH 7.4) in a total volume of 200 μl. Test compound are dissolved in acetonitrile. Incubated with pooled human liver microsomes at 37° C. for a defined time. The reactions are stopped by adding 100 μl of acetonitrile in which a suitable internal standard is always present. Precipitated proteins are removed by centrifugation, and the supernatants analyzed by LC-MS/MS. The data represents the extrapolated IC50 (μM) concentration derived from 3 μM.

CYP2C9 = CYP2C9 (Homo sapiens (Human), UniProt P11712); test: CYP inhibition assay; type: in vitro ADME; conditions: pooled human liver microsomes; extrapolated IC50 derived from 3 μM; read-out: IC50 (μM) of CYP isoforms, 2C9
Protocol: as §1, §2

CYP2D6 = CYP2D6 (Homo sapiens (Human), UniProt P10635); test: CYP inhibition assay; type: in vitro ADME; conditions: pooled human liver microsomes; extrapolated IC50 derived from 3 μM; read-out: IC50 (μM) of CYP isoforms, 2D6
Protocol: as §1, §2

CYP2J2 = CYP2J2 (Homo sapiens (Human), UniProt P51589); test: CYP inhibition assay; type: in vitro ADME; conditions: pooled human liver microsomes; extrapolated IC50 derived from 3 μM; read-out: IC50 (μM) of CYP isoforms, 2J2
Protocol: as §1, §2

[2] = In vitro liver microsomal stability assay (rat); type: in vitro ADME; conditions: rat liver microsomes
Protocol: (§3) Liver microsomal stability assays are conducted at 1 mg per mL liver microsome protein with an NADPH in phosphate buffer (100 mM, pH 7.4). Test compounds (compound of formula B of the invention) are prepared as solutions in 20% methanol-water and added to the assay mixture (final assay concentration 1 μM) and incubated at 37° C. Aliquots (100.μ·L) are taken out at times 0, 15, and 30 minutes, and diluted with ice cold acetonitrile containing IS (200.mu·L) to stop the reactions. Samples are centrifuged at 10,000 RPM for 5 minutes to precipitate proteins. Supernatants are transferred to micro centrifuge tubes and stored at −20° C. for analysis of LC/MS/MS. The percent parent remaining of the test substance is calculated as Ratio of peak area at each time point to peak area ratio at zero min, multiplied by 100. The compound formula (B) is converted to Rivaroxaban in microsomal assay.

[3] = In vitro liver microsomal stability assay (mouse); type: in vitro ADME; conditions: mouse liver microsomes
Protocol: as §3

plasma protein = test: Plasma protein binding (rat); type: in vitro ADME
Protocol: A compound solution (1 mM in DMSO) (5 μL), according to the invention is added to the respective plasma matrices of rat or human or mouse (1 ml).
Add 150 ul of phosphate buffer to receiving side of the dialysis well. […] Precipitate with Acetonitrile and dilute samples prior to analysis in 1.5 ml polypropylene tubes. Remove 50 μl from the sample side of dialysis well and add 50 μl of phosphate buffer +300 μl of acetonitrile containing IS. Remove 50 μl from the buffer side of the dialysis well and add 50 μl of respective matrix plasma +300 μl of ACN. Then vortexed and centrifuged for 5 min, and supernatant is taken and injected into LCMS.
Different test concentration ranging from 0.1 μM to 20 μM are made in methanol:water (90:10). Test solutions are added to the premixed matrix containing plasma:phosphate buffer (50:50). Precipitate with 300 μl of ice cold acetonitrile containing IS, vortexes and centrifuged. Supernatant is taken and injected into LCMS. Percentage of plasma protein binding was obtained via Equation(2):% Fraction unbound=(concentration on the buffer side/concentration on the sample side)*100 Table-7

[4] = Anticoagulant activity (PT, APTT) in human plasma; conditions: PT and APTT, 0.1 to 1.0 μg/mL
Protocol: The anticoagulant action of the test substance (compound formula-B) and rivaroxaban was determined in vitro using human plasma. The human plasma used for this experiment was separated from the blood collected in sodium citrate as anticoagulant. The prothrombin time (PT) was determined by using a commercial test kit (Neoplastin from Stagid) and APTT was determined using (Synthasil kit by IL). […] Coagulation was then started by addition of thromboplastin, and time when coagulation occurred was determined. The concentration of test substance which effected a doubling of prothrombin time was determined.

[5] = metabolised to rivaroxaban from zero min

Sequence of CYP2C9 (P11712 whole entry, canonical isoform): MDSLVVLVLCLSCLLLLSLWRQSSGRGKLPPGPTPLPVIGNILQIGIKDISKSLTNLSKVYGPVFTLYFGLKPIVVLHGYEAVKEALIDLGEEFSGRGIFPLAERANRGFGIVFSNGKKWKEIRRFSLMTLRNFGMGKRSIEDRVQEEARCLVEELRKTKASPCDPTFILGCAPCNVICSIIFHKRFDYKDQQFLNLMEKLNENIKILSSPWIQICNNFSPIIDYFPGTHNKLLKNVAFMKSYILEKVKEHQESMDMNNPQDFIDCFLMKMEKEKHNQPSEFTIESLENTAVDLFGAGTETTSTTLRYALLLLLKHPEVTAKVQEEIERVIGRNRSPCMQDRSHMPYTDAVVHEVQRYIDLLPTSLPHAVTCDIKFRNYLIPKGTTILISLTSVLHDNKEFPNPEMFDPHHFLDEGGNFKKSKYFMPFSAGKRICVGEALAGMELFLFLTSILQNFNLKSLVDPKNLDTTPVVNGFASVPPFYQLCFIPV
Sequence of CYP2J2 (P51589 whole entry, canonical isoform): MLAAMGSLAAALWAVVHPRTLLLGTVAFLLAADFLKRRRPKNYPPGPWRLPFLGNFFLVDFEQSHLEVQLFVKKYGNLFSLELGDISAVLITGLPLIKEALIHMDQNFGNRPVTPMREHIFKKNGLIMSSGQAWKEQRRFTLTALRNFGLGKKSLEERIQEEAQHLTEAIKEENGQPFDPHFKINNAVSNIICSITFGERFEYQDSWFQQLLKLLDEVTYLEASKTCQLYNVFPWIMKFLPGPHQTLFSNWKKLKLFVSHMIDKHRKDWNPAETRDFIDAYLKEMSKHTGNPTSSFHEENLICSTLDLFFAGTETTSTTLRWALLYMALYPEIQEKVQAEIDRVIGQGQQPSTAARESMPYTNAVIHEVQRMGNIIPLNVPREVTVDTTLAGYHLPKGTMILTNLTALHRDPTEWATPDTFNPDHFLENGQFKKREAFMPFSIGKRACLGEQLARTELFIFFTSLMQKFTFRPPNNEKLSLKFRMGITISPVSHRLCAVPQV
Sequence of CYP2D6 (P10635 whole entry, canonical isoform): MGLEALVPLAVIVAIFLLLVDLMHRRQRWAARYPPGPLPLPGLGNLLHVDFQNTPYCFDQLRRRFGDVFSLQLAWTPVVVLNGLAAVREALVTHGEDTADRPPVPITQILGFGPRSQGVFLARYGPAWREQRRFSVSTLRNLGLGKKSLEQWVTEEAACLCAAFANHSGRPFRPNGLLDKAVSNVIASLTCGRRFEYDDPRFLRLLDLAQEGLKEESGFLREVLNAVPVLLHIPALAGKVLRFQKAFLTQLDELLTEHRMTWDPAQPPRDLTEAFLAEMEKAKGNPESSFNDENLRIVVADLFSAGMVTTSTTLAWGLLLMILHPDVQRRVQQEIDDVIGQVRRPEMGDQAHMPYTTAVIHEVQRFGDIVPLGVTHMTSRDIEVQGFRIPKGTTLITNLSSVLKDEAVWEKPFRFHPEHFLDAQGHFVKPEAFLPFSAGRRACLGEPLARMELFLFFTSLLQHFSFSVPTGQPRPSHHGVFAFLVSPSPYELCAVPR
Sequence of CYP2C19 (P33261 whole entry, canonical isoform): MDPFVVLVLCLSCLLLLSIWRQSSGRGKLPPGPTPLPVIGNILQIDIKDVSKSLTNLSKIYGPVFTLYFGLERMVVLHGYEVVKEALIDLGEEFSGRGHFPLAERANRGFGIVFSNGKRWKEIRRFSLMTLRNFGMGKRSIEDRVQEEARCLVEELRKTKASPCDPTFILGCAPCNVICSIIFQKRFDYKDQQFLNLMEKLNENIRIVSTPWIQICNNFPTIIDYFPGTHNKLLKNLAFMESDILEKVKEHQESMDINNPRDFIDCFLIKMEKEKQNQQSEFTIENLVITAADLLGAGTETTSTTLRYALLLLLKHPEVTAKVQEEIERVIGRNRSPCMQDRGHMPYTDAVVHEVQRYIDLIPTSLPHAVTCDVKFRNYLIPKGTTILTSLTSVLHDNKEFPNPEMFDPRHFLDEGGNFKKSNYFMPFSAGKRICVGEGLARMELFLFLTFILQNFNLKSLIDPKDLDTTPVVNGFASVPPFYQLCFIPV

% Parent remaining ([1]; 30 min): 99.27%
% Parent remaining ([1]; 60 min): 101.17%
% Parent remaining ([1]; 120 min): 100.05%
% Parent remaining ([1]; Zero min): 100%
Conclusion (stability in SGF) ([1]; up to 120 min): is stable
IC50 (CYP2C19): 25.3 µM
IC50 (CYP2C9): 22.4 µM
IC50 (CYP2D6): 8.2 µM
IC50 (CYP2J2): 6.7 µM
Observation (metabolism; for Test Product: of the formed rivaroxaban) [2]: shown metabolism
amount of test product detected [2, 5]: min. Neglible
Observation (metabolism; for Test Product: of the formed rivaroxaban) [3]: shown metabolism
amount of test product detected [3, 5]: min. Neglible
Observation: amount of test product (plasma protein): Not quantificable amount
Observation: formed Rivaroxaban bound to plasma protein (plasma protein): found to be moderate-High
SMILES: O=CN(C[C@H]1CN(c2ccc(N3CCOCC3=O)cc2)C(=O)O1)C(=O)c1ccc(Cl)s1 [Compound formula B, 5-chloro-N-formyl-N-({(5S)-2-oxo-3-[4-(3-oxomorpholin-4-yl)phenyl]-1,3-oxazolidin-5-yl}methyl)thiophene-2-carboxamide]
anticoagulant activity [4]: significant anticoagulant activity
